Test results reported in patent US20160281089A1, “PREVENTION OF VIRAL INFECTIVITY” (priority 2005, published 2016).

Biological target: RT/RNaseH (Human immunodeficiency virus type 1 group M subtype B, UniProt P04585)
Test: RNase H cleavage assay with synthetic 5'-end-labelled RNA and RT/RNaseH
Assay type: biochemical, HIV-1
Parameters: the HIV RT/RNase H is a heterodimer of p66 and p51 with and without RNase H
Settings: for RT/RNaseH cleavage of RNA2 (contains extended PPT): 10 nM 5'-labelled RNA2
From the text: We used synthetic 5′-end-labelled RNA2, which contains the extended PPT and sequences of the viral genome close to the PPT. […] For the present study we used low concentrations of the ODNs.
To test whether an ODN-mediated activity would preferentially occur at the PPT, we analysed ODNs targeted to the extended PPT (ODN A) or to a region outside of the PPT (ODN CO and an external antisense oligodeoxynucleotide asEXT) in vitro. We used RNA2, which contains the PPT and the binding sites for ODN A, asEXT and ODN CO. […] Indeed, in the reaction mixture containing both ODN A and asEXT primers, extension products, predominantly synthesized by the RT/RNaseH, started with ODN A and not asEXT (FIG. 2B). […] Thus, the ability of the ODN A to mediate RT/RNaseH-dependent cleavage of the viral RNA is PPT-dependent.
(A) Cleavage assay. 10 nM of in vitro transcribed 5′-labeled RNA was hybridized with 10, 100 and 1000 nM of ODN A and incubated in the presence of RT/RNaseH. The cleavage products were analyzed by denaturing PAGE as described in Materials and methods. (B). Primer extension assay. Synthetic RNA2 was hybridized with ODN A, antisense primer (asEXT) or both primers combined, and the primer extension was performed as described in Materials and Methods. Elongation products were analysed by 8 M urea/10% PAGE. (C) Cleavage assay. RNA/ODN hybrids, obtained using 10 nM of RNA2 and 10 nM of ODN A, asPPT or ODN CO were incubated with RT/RNaseH and cleavage products were analyzed by denaturing PAGE as described in Materials and methods. Cleavage or extension products are presented schematically to the right of each blot. Cleavage sites are indicated by arrows and labelled cleavage products are shown by black lines. Dots on extension products indicate the incorporated labelled dATPs.

TTTTCTTTTGGGGGGTTTGGTTGGGTTTTCCCTTCCAGTCCCCCCTTTTCTTTT (phosphorothioate linkages, further chemistry not given here) [ODN A, 25 mer antisense and 25 mer passenger strand connected by T4, phosphorothioated at each end and in linker, targeted to extended PPT of HIV-1]
RT/RNaseH cleavage of RNA2 (contains extended PPT) (10 nM ODN): cleaved
cleavage of RNA2 compared to control ODN CO (10 nM RNA2, 10 nM ODN, FIG. 2C): more efficient cleavage
cleavage of RNA2 compared to single-stranded asPPT (10 nM RNA2, 10 nM ODN, FIG. 2C): slightly stronger
RT/RNaseH cleavage of RNA2 (contains extended PPT) (1 μM ODN): not
ODN-mediated cleavage of RNA3 (no PPT sequence) (RNA3 without PPT): not affected
